Converted amounts (≈) assume the structure as drawn.
Experiment: physchem
Method: Menadione purchased from Sigma Aldrich was dissolved in propylene carbonate solution comprising tetrafluoroborate tetraethylammonium and the maximum amount of Menadione that can be dissolved was checked.
1,4-Naphthoquinone purchased from Sigma Aldrich was dissolved in propylene carbonate solution comprising tetrafluoroborate tetraethylammonium and the maximum amount of 1,4-Naphthoquinone that can be dissolved was checked.
N,N,N′N′-tetramethyl-p-phenylenediamine purchased from Alfa aesar was dissolved in propylene carbonate solution comprising tetrafluoroborate tetraethylammonium and the maximum amount of N,N,N′N′-tetramethyl-p-phenylenediamine that can be dissolved was checked.
Tetrathiafulvalene purchased from Sigma Aldrich was dissolved in propylene carbonate solution comprising tetrafluoroborate tetraethylammonium and the maximum amount of tetrathiafulvalene that can be dissolved was checked.
N,N-dimethyl-p-phenylenediamine purchased from Sigma Aldrich was dissolved in propylene carbonate solution comprising tetrafluoroborate tetraethylammonium and the maximum amount of N,N-dimethyl-p-phenylenediamine that can be dissolved was checked.
Triphenylamine purchased from Sigma Aldrich was dissolved in propylene carbonate solution comprising tetrafluoroborate tetraethylammonium and the maximum amount of triphenylamine that can be dissolved was checked.
4-Hydroxydiphenylamine purchased from Sigma Aldrich was dissolved in propylene carbonate solution comprising tetrafluoroborate tetraethylammonium and the maximum amount of 4-hydroxydiphenylamine that can be dissolved was checked.
4-Amino-diphenylamine purchased from Sigma Aldrich was dissolved in propylene carbonate solution comprising tetrafluoroborate tetraethylammonium and the maximum amount of 4-amino-diphenylamine that can be dissolved was checked.
Thianthrene purchased from Aldrich was dissolved in propylene carbonate solution comprising tetrafluoroborate tetraethylammonium and the maximum amount of thianthrene that can be dissolved was checked.

[1] = organic solvent or mixture, thermodynamic from solid
[2] = maximum amount dissolved in propylene carbonate solution comprising tetrafluoroborate tetraethylammonium

In the case of `c1ccc2c(c1)Sc1ccccc1S2` [Comparative example 2, Thianthrene, reference compound], the solubility [1] is reported as 100 mM (≈ 21.6 mg/mL).
In the case of `CC1=CC(=O)c2ccccc2C1=O` [Example 2, menadione], the solubility [1] is reported as 300 mM (≈ 51.7 mg/mL).
`O=C1C=CC(=O)c2ccccc21` [Example 3, 1,4-Naphthoquinone] gave a solubility [1] of 500 mM (≈ 79.1 mg/mL).
With `CN(C)c1ccc(N(C)C)cc1` [Example 4, N,N,N′N′-tetramethyl-p-phenylenediamine] the solubility [2] was 2000 mM (≈ 329 mg/mL).
Work on `C1=CSC(=C2SC=CS2)S1` [Example 5, Tetrathiafulvalene] yielded a solubility of 600 mM (≈ 123 mg/mL).
For `CN(C)c1ccc(N)cc1` [Example 6, N,N-dimethyl-p-phenylenediamine], the solubility [1] was 2000 mM (≈ 272 mg/mL).
Work on `c1ccc(N(c2ccccc2)c2ccccc2)cc1` [Example 7, Triphenylamine] yielded a solubility [1] of under 100 mM.
With `Oc1ccc(Nc2ccccc2)cc1` [Example 8, 4-hydroxydiphenylamine] the solubility [2] was 4000 mM (≈ 741 mg/mL).
For `Nc1ccc(Nc2ccccc2)cc1` [Example 9, 4-amino-diphenylamine], the solubility was 4000 mM (≈ 737 mg/mL).

Reference: patent publication US11088380B2, “Electrolyte solution for redox flow battery and redox flow battery comprising same” (Seoul National University R&DB Foundation, priority 2013, dated 2021)
